# Data taken from patent publication US5948786A, “Piperidinylpyrimidine derivatives” (Sumitomo Pharmaceuticals Company, Limited, priority 1996, dated 1999).
# Test system: TNF α production from mouse macrophages
# Test: Inhibitory activity of compound on TNF α Production from mouse macrophages (LPS-induced PEC's)
# Format: cell-based
# Conditions: Macrophage, LPS 10 μg/ml, 18 hours
# Experimental: BALB/c mice (female, 5-7 weeks old, Charles River Japan, Tokyo, Japan) were injected i.p. with 1 ml of 2.4% thioglycollate broth. After 4 days, the mice were sacrificed. Peritoneal exudated cells (PEC's) were collected from the peritoneal cavity by washing with minimum essential medium (MEM, Handai biseibutubyou kenkyukai, Osaka, Japan) containing 5 U/ml heparin, 1% fetal bovine serum (FBS, Filtron, Victoria, Australia) and antibiotics. The cells were washed two times with MEM, suspended with MEM containing 10% FBS (complete MEM, cMEM) and seeded into 96-well culture plates (Costar, Cambridge, Mass., USA) at 2×10^5 cells/well. The cells were incubated for 1 hour at 37° C. in a humidified 5% CO2 incubator and washed two times to remove non-adherent cells.
# (§1) TNF α was induced by 10 μg/ml of LPS (E. coli O111B4, DIFCO, Detroit, Mich., USA) the cells were cultured for 18 hours at 37° C. A compound of the present invention was dissolved in DMSO and added to the culture simultaneously with LPS. The final DMSO concentration was below 0.1%. The TNF α concentration in supernatant and recombinant mouse TNF α standard (rm-TNF α, Genzyme, Mass., USA) were incubated overnight at 4° C. in a 96-well plate coated with anti-mouse TNF α monoclonal antibody (PharMingen, San Diego, Calif., USA) that previously had been blocked with 10% FBS. Each well of the plate first was incubated at room temperature with biotinylated anti-mouse TNF α polyclonal antibodies (PharMingen) for 45 minutes, then with peroxidase-conjugated streptavidin (Kirkegaard & Perry Laboratories Inc., Gaitherburg, Md., USA) for 30 minutes. After each incubation, the plate was washed 4 to 8 times with PBS containing 0.2% Tween 20. TMB (Kirkegaard & Perry Laboratories Inc.) was the peroxidase substrate used and, the absorbance of each well was quantified at 450 nm by a microplatereader (Molecular Devices Corp., CA, USA). TNF α levels in the supernatant were quantified with rm-TNF α as the standard.
row,SMILES,inhibition at 30 µM [%]
1,COc1ccc(Cc2cc(C3CCN(C(=O)Cc4ccc(Cl)cc4Cl)CC3)nc(N)n2)cc1 [Example 239],99
2,COc1ccc(Cc2cc(C3CCN(C(=O)Cc4ccc(Cl)c(Cl)c4)CC3)nc(N)n2)cc1 [Example 241],95
3,COc1ccc(Cc2cc(C3CCN(C(=O)Cc4ccc([N+](=O)[O-])cc4[N+](=O)[O-])CC3)nc(N)n2)cc1 [Example 242],31
4,COc1ccc(Cc2cc(C3CCN(C(=O)Cc4ccc5c(c4)OCO5)CC3)nc(N)n2)cc1 [Example 243],93
5,COc1ccc(Cc2cc(C3CCN(C(=O)Cc4c(Cl)ccc(Cl)c4Cl)CC3)nc(N)n2)cc1 [Example 244],98
6,CCCCCCCC(=O)N1CCC(c2cc(Cc3ccc(Cl)cc3)nc(N)n2)CC1 [Example 247],21
7,CCCCCCCCC(=O)N1CCC(c2cc(Cc3ccc(Cl)cc3)nc(N)n2)CC1 [Example 248],-6
8,Nc1nc(Cc2ccc(Cl)cc2)cc(C2CCN(C(=O)c3ccc4c(c3)OCO4)CC2)n1 [Example 250],91
9,COc1ccc(CC(=O)N2CCC(c3cc(Cc4ccc(Cl)cc4)nc(N)n3)CC2)cc1 [Example 251],98
10,Nc1nc(Cc2ccc(Cl)cc2)cc(C2CCN(C(=O)Cc3ccc(Cl)cc3)CC2)n1 [Example 252],96
11,CCCCCCCC(=O)N1CCC(c2cc(CCc3ccccc3)nc(N)n2)CC1 [Example 255],47
12,CCCCCCCCC(=O)N1CCC(c2cc(CCc3ccccc3)nc(N)n2)CC1 [Example 256],75
13,CCCCCCCCCC(=O)N1CCC(c2cc(CCc3ccccc3)nc(N)n2)CC1 [Example 257],90
14,COc1ccc(CC(=O)N2CCC(c3cc(CCc4ccccc4)nc(N)n3)CC2)cc1 [Example 261],42
15,Nc1nc(CCc2ccccc2)cc(C2CCN(C(=O)Cc3ccc(Cl)cc3)CC2)n1 [Example 262],43
16,Nc1nc(CCc2ccccc2)cc(C2CCN(C(=O)Cc3ccc([N+](=O)[O-])cc3)CC2)n1 [Example 263],37
17,Nc1nc(C2CCN(C(=O)OCc3ccccc3)CC2)c2ccccc2n1 [Example 269],77
18,Nc1nc(C2CCN(S(=O)(=O)Cc3ccccc3)CC2)c2ccccc2n1 [Example 272],5
19,COc1ccc(Cc2cc(C3CCN(C(=O)OCc4ccccc4)CC3)nc(N)n2)cc1 [Example 274],49
20,COc1ccc(Cc2cc(C3CCN(S(=O)(=O)Cc4ccccc4)CC3)nc(N)n2)cc1 [Example 277],32
21,"Nc1nc(C2CCN(C(=O)NCc3ccccc3)CC2)c2ccccc2n1 [Example 280, 2-amino-4-(1-benzyl-carbamoyl-4-piperidinyl)quinazoline]",34
22,"COc1ccc(Cc2cc(C3CCN(C(=O)NCc4ccccc4)CC3)nc(N)n2)cc1 [Example 283, 2-amino-4-(1-benzylcarbamoyl-4-piperidinyl)-6-(4-methoxyphenylmethyl)pyrimidine]",81
23,"NCCCCCCC(=O)N1CCC(c2nc(N)nc3ccccc23)CC1 [Example 284, 2-amino-4-[1-(7-aminoheptanoyl)-4-piperidinyl]quinazoline]",3
24,"NCCCCCCCC(=O)N1CCC(c2nc(N)nc3ccccc23)CC1 [Example 285, 2-amino-4-[1-(8-aminooctanoyl)-4-piperidinyl]quinazoline]",27
25,"NCCCCCCCCCCC(=O)N1CCC(c2nc(N)nc3ccccc23)CC1 [Example 286, 2-amino-4-[1-(11-aminoundecanoyl)-4-piperidinyl]quinazoline]",67
26,"COc1ccc(Cc2cc(C3CCN(C(=O)CCN)CC3)nc(N)n2)cc1 [Example 287, 2-amino-4-[1-(3-aminopropanoyl)-4-piperidinyl]-6-(4-methoxyphenylmethyl)pyrimidine]",40

# Test system: Tat induced HIV-1 LTR-CAT gene expression in Jurkat cells
# Test: Tat induced HIV-1 LTR-CAT gene expression in Jurkat cells
# Format: cell-based
# Conditions: Homo sapiens, Tat (pSV-Tat), 24 hours
# Experimental: p469, HIV-1 LTR driven CAT and pSV-Tat, Tat-expression vector were kindly provided from Dr. Gary J. Nabel (Nature Vol. 326, 711(1987))
# RPMI 1640 medium (Life Technologies, Grand Island, N.Y., USA) was supplemented with heat-inactivated fetal calf serum (FBS; Sigma, St. Louis, Mo., USA).
# Human T lymphoma cell line, Jurkat, was cultured in medium described above Transfection;
# Introduction of plasmid DNA into cells was carried out according to the method described in Chiang, J. Li et al., Proc. Natl. Acad. Sci. Vol. 92, 5461-5464 (1995). Briefly, the cells were suspended with the medium at 2×10^7 cells/ml followed by addition 1 μg of p469 and 0.5 μg of DEAE-dextran (Sigma). In some experiments the cells were co-transfected with 0.5 μg of pSV-Tat. After 10 minutes incubation at room temperature with occasionally mixing, the cells were pulsed with electroporation apparatus at 140 V. The cells were re-suspended with the fresh medium and cultured for 20 hours at 37° C.
# A compound tested was dissolved in dimethylsulfoxide at 100 mM as a stock solution. The aliquots of the stock solution were kept frozen at -20° C. Jurkat cells transfected with p469 were treated with 10 ng/ml of phorbol 12-myristate 13-acetate (PMA; Sigma) to activate HIV-1-LTR directed CAT gene transcription in the presence of the compound. In the case of cells transfected with p469 and pSV-Tat, they were simply treated with the compound. After the cells were cultured for an additional 24 hours at 37° C., the cells were washed 2 times with phosphate-buffered saline and lysed in 50 mM Tris-HCl plus 15% glycerol with repeated cycles of freeze and thaw. The cell lysates were clarified by centrifugation followed by determination of protein concentration by Bradford method (Bio-Rad, Hercules, Calif., USA). Measurement of a CAT activity in cell lysates was carried out according to a similar method described in Fridovich-Keil J. L. et. al., Cell Growth and Differentiation, Vol. 2, 67-76(1991). Equal amount (30 μg of protein) of cell lysates was incubated at 37° C. with 35 μg of acetyl co-enzyme A (GIBCO/BRL, Grand Island, Mo., USA) and 0.1 μCi of 14C-chloramphenicol (Dupont, NEN Boston, Mass., USA) in […] solution for 2 hours. Acetyl-14C-chloramphenicol was extracted with 9 volumes of ethyl acetate and fractionated on a TLC gel with 1:19 (v/v) in methanol/chloroform. The CAT activity was detected by autoradiography and quantified by an Imaging Densitometer (model GS-700; Bio-Rad).
row,SMILES,inhibition at 5 µM [%]
1,"Nc1nc(Cc2ccc(Br)cc2)cc(C2CCN(C(=O)c3ccc4c(c3)OCO4)CC2)n1 [Example 303, 2-Amino-4-(4-bromophenylmethyl)-6-[1-(3,4-methylenedioxybenzoyl)-4-piperidinyl]pyrimidine]",65
2,Nc1nc(Cc2ccccc2)cc(C2CCN(C(=O)c3ccc4c(c3)OCO4)CC2)n1 [Example 304],44
3,COc1cccc(Cc2cc(C3CCN(C(=O)c4ccc5c(c4)OCO5)CC3)nc(N)n2)c1 [Example 305],72
4,COc1cc(Cc2cc(C3CCN(C(=O)c4ccc5c(c4)OCO5)CC3)nc(N)n2)cc(OC)c1 [Example 308],70

# Test system: TNF α production from human peripheral blood mononuclear cells (PBMC)
# Test: Inhibitory activity of compound on TNF α production from PBMC
# Format: cell-based
# Conditions: not given
# Experimental: as §1, with “The final DMSO concentration was below 0.1%. The TNF α concentration in supernatant and recombinant mouse TNF α standard (rm-TNF α, Genzyme, Mass., USA) were incubated overnight at 4° C. in a 96-well plate coated with anti-mouse TNF α monoclonal antibody (PharMingen, San Diego, Calif., USA) that previously had been blocked with 10% FBS.” left out, “standard. Inhibitory activity of TNF α production was also quantified using human peripheral blood mononuclear cells(PBMC) instead of PEC's. Results are shown in table 9, 10, 11, 12, 13, 14, 15, 16, 17, 18, 19 and 20.” for “standard.”
row,SMILES,inhibition at 30 µM [%]
1,COc1ccc(Cc2cc(C3CCN(C(=O)c4ccc5[nH]cnc5c4)CC3)nc(N)n2)cc1 [Example 289],93
2,COc1ccc(Cc2cc(C3CCN(C(=O)c4ccc5[nH]ccc5c4)CC3)nc(N)n2)cc1 [Example 290],101
3,COc1ccc(Cc2cc(C3CCN(C(=O)c4ccc5c(c4)OCCO5)CC3)nc(N)n2)cc1 [Example 291],88
4,COc1ccc(Cc2cc(C3CCN(C(=O)c4ccc(F)c(F)c4)CC3)nc(N)n2)cc1 [Example 292],66
5,COc1ccc(Cc2cc(C3CCN(C(=O)c4ccc(O)c(OC)c4)CC3)nc(N)n2)cc1 [Example 300],80
6,COc1ccc(Cc2cc(C3CCN(C(=O)c4ccc(OC)c(O)c4)CC3)nc(N)n2)cc1 [Example 301],88
7,"COc1ccc(Cc2cc(C3CCN(C(=O)c4ccc(O)c(O)c4)CC3)nc(N)n2)cc1 [Example 302, 2-Amino-4-[1-(3,4-dihydroxybenzoyl)-4-piperidinyl]-6-(4-methoxyphenylmethyl) pyrimidine]",86
8,"Nc1nc(Cc2ccc(Br)cc2)cc(C2CCN(C(=O)c3ccc4c(c3)OCO4)CC2)n1 [Example 303, 2-Amino-4-(4-bromophenylmethyl)-6-[1-(3,4-methylenedioxybenzoyl)-4-piperidinyl]pyrimidine]",92
9,Nc1nc(Cc2ccccc2)cc(C2CCN(C(=O)c3ccc4c(c3)OCO4)CC2)n1 [Example 304],83
10,COc1cccc(Cc2cc(C3CCN(C(=O)c4ccc5c(c4)OCO5)CC3)nc(N)n2)c1 [Example 305],80
11,COc1cc(Cc2cc(C3CCN(C(=O)c4ccc5c(c4)OCO5)CC3)nc(N)n2)cc(OC)c1 [Example 308],87
12,"Nc1nc(Cc2ccc(O)cc2)cc(C2CCN(C(=O)c3ccc4c(c3)OCO4)CC2)n1 [Example 315, 2-Amino-4-(4-hydroxyphenylmethyl)-6-[1-(3,4-methylenedioxybenzoyl)-4-piperidinyl] pyrimidine]",86
